# Read-outs that look alike come from different tables or passages of the source.
# Tests used:
# [1] = test system: NQO1 specific enzyme activity in BEAS-2B cells (marker for NRF2 activation); experiment: BEAS-2B NQO1 MTT Assay; type: cell-based; conditions: Homo sapiens
# Procedure, shortened: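 BEAS-2B cells treated with compound for 48 h at 37 °C, then lysed; NQO1 activity in lysates measured kinetically by MTT reduction at A570 over 30 min. pEC50 from 3-parameter fit of ΔOD/min versus log concentration; lysate also taken for Cell Titer Glo.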
# [2] = target: T1, Keap1 Kelch domain (321-609) / TAMRA-labeled 16mer NRF2 peptide (ETGE motif) (Homo sapiens, UniProt Q14145); experiment: NRF2-Keap1 FP Assay (Keap1 Kelch fluorescence polarization); type: binding; conditions: 20 nM Keap1 (321-609), 8 nM Tamra labeled peptide
# T1 construct: the Kelch domain (321-609) of Keap1 is used
# Procedure, shortened: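 Compound dilutions (3-fold) were incubated 1 hr at room temperature with 20 nM Keap1 Kelch (321-609) and 8 nM TAMRA-labeled ETGE 16mer peptide. Buffer was 50 mM Tris pH 8.0, 100 mM NaCl, 5 mM MgCl2, 1 mM DTT, 2 mM CHAPS, 0.005% BSA. Fluorescence polarization (mP) was normalized to controls and fitted with a four-parameter equation to give pIC50.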
# [3] = target: T2, full length Keap1 protein / full length NRF2 protein (Homo sapiens, UniProt Q14145); experiment: NRF2-Keap1 TR-FRET Low Protein Assay; type: binding; conditions: 1.25 nM Keap1 FlagHis and 2.5 nM biotin-NRF2 added
# T2 construct: full length NRF2 protein and full length Keap1 protein (Keap1 exists a dimer) are used; His
# Procedure, shortened: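 Flag-tagged full-length Keap1 was preincubated with compound (3-fold series) for 2.25 h at 37 °C in Tris pH 8.0/MgCl2/NaCl/BSA/DTT/CHAPS. Biotin-Avi-NRF2 (added at 2.5 nM) was then bound for 1.25 h at 4 °C. Eu-streptavidin/anti-Flag-APC TR-FRET (665/615 nm) was read after 1 h at RT, and pIC50 came from a four-parameter fit.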
# [4] = BEAS-2B, 48 h, compound incubated 48 hours, read-out: EC50 (NQO1 specific enzyme activity induction)
# [5] = compound incubated 48 hours, read-out: EC50 (NQO1 specific enzyme activity induction)
# T2 sequence (Q14145 whole entry): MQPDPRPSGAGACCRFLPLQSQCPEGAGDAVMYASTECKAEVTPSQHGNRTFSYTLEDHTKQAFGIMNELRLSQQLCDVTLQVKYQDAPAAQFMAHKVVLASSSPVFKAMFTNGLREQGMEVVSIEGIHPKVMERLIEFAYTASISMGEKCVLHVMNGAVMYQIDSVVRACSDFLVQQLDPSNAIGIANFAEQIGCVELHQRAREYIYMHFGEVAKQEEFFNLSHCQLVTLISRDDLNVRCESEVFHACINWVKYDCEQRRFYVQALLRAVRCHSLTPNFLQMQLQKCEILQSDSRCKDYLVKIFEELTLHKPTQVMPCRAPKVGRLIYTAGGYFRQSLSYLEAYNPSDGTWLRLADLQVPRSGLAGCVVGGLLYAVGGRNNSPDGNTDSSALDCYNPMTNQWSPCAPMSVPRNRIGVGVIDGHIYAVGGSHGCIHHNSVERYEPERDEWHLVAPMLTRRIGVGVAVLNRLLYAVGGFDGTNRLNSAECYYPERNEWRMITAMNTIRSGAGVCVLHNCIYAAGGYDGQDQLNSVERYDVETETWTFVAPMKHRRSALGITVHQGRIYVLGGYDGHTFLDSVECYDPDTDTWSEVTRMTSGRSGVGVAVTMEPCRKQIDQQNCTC
# T1 sequence (Q14145 321-609): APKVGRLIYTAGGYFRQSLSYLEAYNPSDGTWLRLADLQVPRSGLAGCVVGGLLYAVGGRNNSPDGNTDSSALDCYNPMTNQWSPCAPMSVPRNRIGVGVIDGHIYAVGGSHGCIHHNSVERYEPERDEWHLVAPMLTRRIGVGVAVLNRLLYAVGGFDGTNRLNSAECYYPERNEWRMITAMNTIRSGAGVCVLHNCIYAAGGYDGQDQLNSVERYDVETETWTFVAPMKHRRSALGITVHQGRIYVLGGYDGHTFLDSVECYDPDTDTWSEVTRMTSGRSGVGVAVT
SMILES,IC50 [2] [nM],IC50 [3] [nM],"EC50 [1, 4] [nM]","EC50 [1, 5] [nM]","EC50 ([1]; in two determinations (footnote ϕ), read-out: EC50 in two determinations) [nM]"
"C[C@H](Oc1cccc(-c2cccc(-n3ncc(C(=O)O)c3[C@H]3C[C@H]3c3cn(C)nn3)c2)c1)C1CCCCC1 (racemic) [Example 101, 1-(3′-((S)-1-cyclohexylethoxy)-[1,1′-biphenyl]-3-yl)-5-(cis-2-(1-methyl-1H-1,2,3-triazol-4-yl)cyclopropyl)-1H-pyrazole-4-carboxylic Acid]",> 10000,1000 to 10000,100 to 1000,–,–
"C[C@H](Oc1cccc(-c2cccc(-n3ncc(C(=O)OCOC(=O)C(C)(C)C)c3[C@@H]3C[C@H]3c3cn(C)nn3)c2)c1)C1CCCCC1 [Example 109, (Pivaloyloxy)methyl 1-(3′-((S)-1-cyclohexylethoxy)-[1,1′-biphenyl]-3-yl)-5-((1R,2R)-2-(1-methyl-1H-1,2,3-triazol-4-yl)cyclopropyl)-1H-pyrazole-4-carboxylate]",> 10000,100 to 1000,–,1 to 10,–
"CN1CCN(Cc2cccc(-c3cccc(-n4ncc(C(=O)O)c4[C@@H]4C[C@H]4c4cn(C)nn4)c3)c2)S(=O)(=O)c2ccccc21 (racemic) [Example 140, 1-(3′-((5-methyl-1,1-dioxido-4,5-dihydrobenzo[f][1,2,5]thiadiazepin-2(3H)-yl)methyl)-[1,1′-biphenyl]-3-yl)-5-((1,2- trans)-2-(1-methyl-1H-1,2,3-triazol-4-yl)cyclopropyl)-1H-pyrazole-4-carboxylic acid]",10 to 100,10 to 100,–,1000 to 10000,–
"C[C@H](Oc1cccc(-c2cccc(-n3ncc(C(=O)O)c3[C@@H]3C[C@H]3c3cn(C)nn3)c2)c1)C1CCCCC1 [Example 70, Calcium 1-(3′-((S)-1-Cyclohexylethoxy)-[1,1′-biphenyl]-3-yl)-5-((1R,2R)-2-(1-methyl-1H-1,2,3-triazol-4-yl)cyclopropyl)-1H-pyrazole-4-carboxylate Hydroxide]",10 to 100,< 10,–,< 1,–
"C[C@H](Oc1cccc(-c2cccc(-n3ncc(C(=O)O)c3[C@@H]3C[C@H]3c3cn(C4CN(C(=O)OC(C)(C)C)C4)nn3)c2)c1)C1CCCCC1 (racemic) [Example 80, 5-(trans-2-(1-(1-(tert-Butoxycarbonyl)azetidin-3-yl)-1H-1,2,3-triazol-4-yl)cyclopropyl)-1-(3′-((S)-1-cyclohexylethoxy)-[1,1′-biphenyl]-3-yl)-1H-pyrazole-4-carboxylic acid]",100 to 1000,10 to 100,–,10 to 100,–
"C[C@H](Oc1cccc(-c2cccc(-n3ncc(C(=O)OCOC(=O)OC(C)(C)C)c3[C@@H]3C[C@H]3c3cn(C)nn3)c2)c1)C1CCCCC1 [Example 112, ((tert-Butoxycarbonyl)oxy)methyl 1-(3′-((S)-1-cyclohexylethoxy)-[1,1′-biphenyl]-3-yl)-5-((1R,2R)-2-(1-methyl-1H-1,2,3-triazol-4-yl)cyclopropyl)-1H-pyrazole-4-carboxylate]",> 10000,100 to 1000,–,1 to 10,–
"CC(Oc1ccc(-c2cccc(-n3ncc(C(=O)O)c3[C@H]3C[C@@H]3c3cn(C)nn3)c2)cc1)C1CCCCC1 (mixture of isomers) [Example 241, 1-(4′-(1-Cyclohexylethoxy)-[1,1′-biphenyl]-3-yl)-5-((1,2-trans)-2-(1-methyl-1H-1,2,3-triazol-4-yl)cyclopropyl)-1H-pyrazole-4-carboxylic Acid]",> 10000,> 100000,–,1000 to 10000,–
"CCC1c2ccccc2OCCN1Cc1cccc(-c2cccc(-n3ncc(C(=O)O)c3[C@H]3C[C@@H]3c3cn(C)nn3)c2)c1 (mixture of isomers) [Example 123, 1-(3′-((5-Ethyl-2,3-dihydrobenzo[f][1,4]oxazepin-4(5H)-yl)methyl)-[1,1′-biphenyl]-3-yl)-5-((1,2-trans)-2-(1-methyl-1H-1,2,3-triazol-4-yl)cyclopropyl)-1H-pyrazole-4-carboxylic Acid]",10 to 100,10 to 100,–,10 to 100,–
"CC[C@@H]1CN(Cc2cccc(-c3cccc(-n4ncc(C(=O)O)c4[C@@H]4C[C@H]4c4cn(C)nn4)c3)c2)S(=O)(=O)c2ccccc2O1 [Example 255, 1-(3′-(((R)-4-Ethyl-1,1-dioxido-3,4-dihydro-2H-benzo[b][1,4,5]oxathiazepin-2-yl)methyl)-[1,1′-biphenyl]-3-yl)-5-(trans-2-(1-methyl-1H-1,2,3-triazol-4-yl)cyclopropyl)-1H-pyrazole-4-carboxylic Acid]",10 to 100,< 10,–,100 to 1000,> 1000
"CC[C@@H]1c2ccccc2OC(C)(C)CN1Cc1cccc(-c2cccc(-n3ncc(C(=O)O)c3[C@@H]3C[C@H]3c3cn(C)nn3)c2)c1 (single isomer, unassigned; isomer 2) [Example 125]",10 to 100,< 10,–,1 to 10,–
"C[C@@H]1Cc2ccc(Br)cc2S(=O)(=O)N(Cc2cccc(-c3cccc(-n4ncc(C(=O)O)c4[C@@H]4C[C@H]4c4cn(C)nn4)c3)c2)C1 (single isomer, unassigned; isomer 2) [Example 135]",10 to 100,10 to 100,–,10 to 100,–
"C[C@H](Oc1cccc(-c2cccc(-n3ncc(C(=O)OCCO)c3[C@@H]3C[C@H]3c3cn(C)nn3)c2)c1)C1CCCCC1 [Example 107, 2-Hydroxyethyl 1-(3′-((S)-1-cyclohexylethoxy)-[1,1′-biphenyl]-3-yl)-5-((1R,2R)-2-(1-methyl-1H-1,2,3-triazol-4-yl)cyclopropyl)-1H-pyrazole-4-carboxylate]",> 10000,1000 to 10000,–,100 to 1000,–
"C[C@@H](Oc1cccc(-c2cccc(-n3ncc(C(=O)O)c3[C@@H]3C[C@H]3c3cn(C)nn3)c2)c1)C1CCCCC1 [Example 162, 1-(3′-((R)-1-Cyclohexylethoxy)-[1,1′-biphenyl]-3-yl)-5-((1R,2R)-2-(1-methyl-1H-1,2,3-triazol-4-yl)cyclopropyl)-1H-pyrazole-4-carboxylic Acid]",100 to 1000,10 to 100,10 to 100,–,–

# Continued, in another order:
IC50 [2] [nM],IC50 [3] [nM],SMILES,"EC50 [1, 4] [nM]","EC50 [1, 5] [nM]","EC50 ([1]; in two determinations (footnote ϕ), read-out: EC50 in two determinations) [nM]"
10 to 100,10 to 100,"C[C@H](Oc1cccc(-c2cccc(-n3ncc(C(=O)O)c3[C@@H]3C[C@H]3c3cn(C4CN(C)C4)nn3)c2)c1)C1CCCCC1 (racemic) [Example 94, 1-(3′-((S)-1-Cyclohexylethoxy)-[1,1′-biphenyl]-3-yl)-5-(trans-2-(1-(1-methylazetidin-3-yl)-1H-1,2,3-triazol-4-yl)cyclopropyl)-1H-pyrazole-4-carboxylic Acid]",–,10 to 100,–
10 to 100,10 to 100,"CC(C)n1cc([C@@H]2C[C@H]2c2c(C(=O)O)cnn2-c2cccc(-c3cccc(O[C@@H](C)C4CCCCC4)c3)c2)nn1 (racemic) [Example 91, 1-(3′-((S)-1-Cyclohexylethoxy)-[1,1′-biphenyl]-3-yl)-5-(trans-2-(1-isopropyl-1H-1,2,3-triazol-4-yl)cyclopropyl)-1H-pyrazole-4-carboxylic acid]",–,1 to 10,–
100 to 1000,10 to 100,"C[C@H](Oc1cccc(-c2cccc(-n3ncc(C(=O)O)c3[C@@H]3C[C@H]3c3cn(C4CCCCC4)nn3)c2)c1)C1CCCCC1 (racemic) [Example 84, 5-(trans-2-(1-Cyclohexyl-1H-1,2,3-triazol-4-yl)cyclopropyl)-1-(3′-((S)-1-cyclohexylethoxy)-[1,1′-biphenyl]-3-yl)-1H-pyrazole-4-carboxylic acid]",–,10 to 100,–
100 to 1000,100 to 1000,"Cc1c(OCC2CCCCC2)cccc1-c1cccc(-n2ncc(C(=O)O)c2[C@H]2C[C@@H]2c2cn(C)nn2)c1 (racemic) [Example 72, 1-(3′-(Cyclohexylmethoxy)-2′-methyl-[1,1′-biphenyl]-3-yl)-5-(trans-2-(1-methyl-1H-1,2,3-triazol-4-yl)cyclopropyl)-1H-pyrazole-4-carboxylic Acid]",–,10 to 100,–
100 to 1000,10 to 100,CC(Oc1cccc(-c2cc(O)cc(-n3ncc(C(=O)O)c3[C@H]3C[C@@H]3c3cn(C)nn3)c2)c1)C1CCCCC1 (mixture of isomers) [Example 194],–,100 to 1000,–
10 to 100,10 to 100,"C[C@H](Oc1cccc(-c2cccc(-n3ncc(C(=O)O)c3[C@@H]3C[C@H]3c3cn(C4CNC4)nn3)c2)c1)C1CCCCC1 (racemic) [Example 85, 5-(trans-2-(1-(Azetidin-3-yl)-1H-1,2,3-triazol-4-yl)cyclopropyl)-1-(3′-((S)-1-cyclohexylethoxy)-[1,1′-biphenyl]-3-yl)-1H-pyrazole-4-carboxylic Acid]",–,100 to 1000,–
10 to 100,10 to 100,"C[C@H](Oc1cccc(-c2cccc(-n3ncc(C(=O)O)c3[C@@H]3C[C@H]3c3cn(C)nn3)c2)c1F)C1CCCCC1 [Example 104, 1-(3′-((S)-1-cyclohexylethoxy)-2′-fluoro-[1,1′-biphenyl]-3-yl)-5-((1R,2R)-2-(1-methyl-1H-1,2,3-triazol-4-yl)cyclopropyl)-1H-pyrazole-4-carboxylic Acid]",–,10 to 100,–

# Reference: patent publication US10364256B2 (GlaxoSmithKline Intellectual Property Development Limited, priority 2015, dated 2019)
